Data from patent US5504097A, “N-hydroxyureas as 5-lipoxygenase inhibitors and inhibitors of oxidative modification of low density lipoprotein” (American Home Products Corporation, priority 1995, dated 1996).

Tests used:
[1] = test system: LT-dependent bronchoconstriction; assay: Inhibition of Bronchoconstriction in Guinea Pigs Induced by Exogenously Administered Antigen (ovalbumin); assay type: in vivo, Male guinea pigs; settings: Cavia porcellus, 5 min; for inhibition in vivo at 10 mg/kg: iv
Description: 4. Inhibition of Brochoconstriction in Guinea Pigs Induced by Exogenously Administered Antigen
Male guinea pigs (Charles River, Wilmington, Mass.) were sensitized 3-4 weeks prior to antigen challenge by administration of 2 i.m. injections of ovalbumin, 1 into each hind limb (35 mg total). Sensitized animals (500-600 g) were fasted overnight prior to experimentation. Conscious animals were then dosed p.o. with drug or vehicle alone (0.5% Tween 80 in H2 O) at the indicated times prior to antigen challenge, or anesthetized animals were dosed i.v. with drug or vehicle alone (DMSO) 5 min prior to antigen challenge. Animals were anesthetized by urethane (2.8 g/kg i.p.). A carotid artery and jugular vein were cannulated to allow for the monitoring of blood pressure and the administration of drugs, respectively. The trachea was then cannulated and connected to a Harvard Apparatus rodent ventilator (S. Natick, Mass). Spontaneous respiration was abolished by the administration of succinylcholine (2.5 mg/kg i.v.). The animals were then ventilated with room air at a rate of 65 breaths per min. Airway inflation pressure was measured using a Statham pressure transducer (Gould Instruments, Cleveland, Ohio) connected to the tracheal cannula via a side-arm and recorded on a Grass Instruments recorder (Quincy, Mass). The tidal volume (approximately 10 cc/kg) was adjusted to give a baseline inflation pressure of 8-10 cm H2 O at end inspiration. Animals were then allowed 20 min to stabilize.
Following the stabilization period, animals were given i.v. injections of pyrilamine (5 mg/kg), propranolol (0.1 mg/kg) and indomethacin (10 mg/kg) at 15, 10 and 5 min, respectively, prior to antigen challenge. This pretreatment results in an LT-dependent bronchoconstriction following antigen challenge, which was accomplished by i.v. administration of ovalbumin (10 mg/kg). Only one bronchoconstriction per animal was induced. End-inspiratory inflation pressure (in cm H2 O over baseline) was measured at 5 min post-antigen challenge. A mean value and standard error for the % inhibition of control bronchoconstriction in each drug-treated group was then calculated.

5-Lipoxygenase = biological target: T1, 5-Lipoxygenase (Homo sapiens, UniProt P09917); assay: Inhibition of 5-Lipoxygenase in Human Whole Blood (LTB4, calcium ionophore A23187); assay type: cell-based; settings: 1 μM
T1 construct: from tissue; host or cells: whole blood of male human donors (endogenous enzyme of the leukocytes)
T1 sequence (P09917 1-674): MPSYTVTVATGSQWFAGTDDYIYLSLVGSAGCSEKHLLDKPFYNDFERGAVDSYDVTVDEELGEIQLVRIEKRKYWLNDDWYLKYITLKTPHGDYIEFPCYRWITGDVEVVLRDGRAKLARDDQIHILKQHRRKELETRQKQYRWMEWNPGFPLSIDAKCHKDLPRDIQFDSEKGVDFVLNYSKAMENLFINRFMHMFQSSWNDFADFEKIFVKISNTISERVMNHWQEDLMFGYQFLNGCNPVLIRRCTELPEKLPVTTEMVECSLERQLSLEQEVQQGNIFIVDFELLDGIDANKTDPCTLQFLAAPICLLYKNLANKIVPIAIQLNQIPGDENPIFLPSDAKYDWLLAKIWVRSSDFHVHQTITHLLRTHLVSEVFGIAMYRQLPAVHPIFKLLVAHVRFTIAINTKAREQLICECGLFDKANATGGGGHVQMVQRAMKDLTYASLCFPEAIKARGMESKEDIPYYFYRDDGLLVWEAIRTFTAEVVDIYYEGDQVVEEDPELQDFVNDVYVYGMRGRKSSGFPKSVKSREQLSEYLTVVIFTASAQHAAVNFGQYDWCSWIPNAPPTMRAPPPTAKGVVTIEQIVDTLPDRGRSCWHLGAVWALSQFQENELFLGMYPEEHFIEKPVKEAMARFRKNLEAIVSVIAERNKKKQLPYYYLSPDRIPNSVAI
Description: 1. Inhibition of 5-Lipoxygenase in Human Whole Blood
Blood is obtained in 50-100 ml quantities from male donors. White blood cell counts and differentials are made. Two ml of blood are placed in a 15 ml polypropylene test tube. Test compounds are solubilized in dimethylsulfoxide and diluted in 1:10 in 10% bovine serum albumin in phosphate buffered saline, pH 7.4 resulting in a final dimethylsulfoxide concentration of 0.1% in the blood. Then, solutions of test compounds are added to the blood in a shaking water bath at 37° C. for 10 minutes prior to the addition of 30 μM calcium ionophore (A23187, Sigma). After ionophore administration, whole blood samples are mixed and incubated for 20 minutes at 37° C. in a shaking water bath. Incubation is terminated by placing samples in an ice bath and immediately adding ethylene glycol-bis-(β-aminoethyl ether)-N, N,N',N'-tetraacetic acid (10 mM). Samples are mixed and centrifuged at 1200× g for 15 minutes at 4° C. Preparation of samples for evaluation by RIA or ELISA is carried out by the following protocol. Plasma is removed from sample tubes, placed in 15 ml polypropylene test tubes containing 8 ml methanol, and then vortexed to precipitate protein. Samples are stored at -70° C. overnight. The next day, samples are centrifuged at 200× g for 15 minutes at 4° C. to pellet the precipitate. Samples are dried in a Savant SpeedVac Concentrator, Model SVC 200H, reconstituted to original volume with ice cold RIA or ELISA buffer, and stored at -70° C. until assayed. The assay for eicosanoids (LTB4, T×B2, and PGE2) is performed as described by the manufacturer of the ^3 H!-RIA kit or ELISA kit (LTB4 -Amersham, T×B2 and PGE2 -Caymen Chemical).
The total eicosanoid level in 2 ml of blood is calculated and reported as ng/10^6 neutrophils. Significance is determined by a one-way analysis of variance with least significant difference (LSD) comparisons to control (p≤0.05) and IC50 's (μM) are determined by regression analysis (Finney, 1978). Drug effects are expressed as percent change from control values.

| inhibition at 1 µM (5-Lipoxygenase) [%] | SMILES | inhibition in vivo at 10 mg/kg [1] [%] | inhibition in vivo at 25 mg/kg ([1]; po) [%] | inhibition in vivo at 50 mg/kg ([1]; po, 50 mg/kg) [%] |
| --- | --- | --- | --- | --- |
| 50 | Cc1oc(-c2ccccc2)nc1COc1ccc(CN(O)C(N)=O)cc1 [Example 1, 1-Hydroxy-1-4-(5-methyl-2-phenyl-oxazol-4-ylmethoxy)-benzyl!-urea] | 38 |  |  |
| 34 | Cc1oc(-c2ccc(C(F)(F)F)cc2)nc1COc1ccc(CN(O)C(N)=O)cc1 [Example 6, 1-Hydroxy-1-4-5-methyl-2-(4-trifluoromethyl-phenyl)-oxazol-4-ylmethoxy!-benzyl!-urea] | 27 | 27 |  |
| 58 | NC(=O)N(O)Cc1ccc(OCc2coc(-c3ccccc3)n2)cc1 [Example 9, 1-Hydroxy-1-4-(2-phenyl-oxazol-4-ylmethoxy)-benzyl!-urea] | 54 |  | 44 |
| 44 | NC(=O)N(O)Cc1ccc(OCc2csc(-c3ccccc3)n2)cc1 [Example 10, 1-Hydroxy-1-4-(2-phenyl-thiazol-4-ylmethoxy)-benzyl!-urea] | 50 | 24 |  |
